Source: patent US20240226026A1, “BRANCHED TAIL LIPID COMPOUNDS AND COMPOSITIONS FOR INTRACELLULAR DELIVERY OF THERAPEUTIC AGENTS” (ModernaTX, Inc., priority 2021, published 2024)

Experiments:
[1] = Particle size (diameter) and polydispersity index of lipid nanoparticles; assay type: physicochemical; settings: nanoparticles comprising the lipid
Experimental: A Zetasizer Nano ZS (Malvern Instruments Ltd, Malvern, Worcestershire, UK) can be used to determine the particle size, the polydispersity index (PDI) and the zeta potential of the nanoparticle compositions in 1×PBS in determining particle size and 15 mM PBS in determining zeta potential.
Lipid nanoparticles (e.g., empty LNPs or loaded LNPs) may be characterized by a variety of methods. For example, microscopy (e.g., transmission electron microscopy or scanning electron microscopy) may be used to examine the morphology and size distribution of a nanoparticle composition. Dynamic light scattering or potentiometry (e.g., potentiometric titrations) may be used to measure zeta potentials. Dynamic light scattering may also be utilized to determine particle sizes. Instruments such as the Zetasizer Nano ZS (Malvern Instruments Ltd, Malvern, Worcestershire, UK) may also be used to measure multiple characteristics of a nanoparticle composition, such as particle size, polydispersity index, and zeta potential.
(§1) Lipid nanoparticles (e.g., empty LNPs or loaded LNPs) including DSPC as a phospholipid, cholesterol as a structural lipid, PL-II (e.g., PEG-1) as a PEG lipid, and a lipid according to Formula (I-1), (I), (I-A), (I-A1), (I-A2), (I-A3), or (I-A4) were prepared. In some embodiments, the lipid nanoparticles further included rhodamine-DOPE as a fluorescent lipid. Tables 2a, 2b, and 3 summarize the characteristics of the formulations.

[2] = Apparent pKa of lipid nanoparticles; assay type: physicochemical; settings: for Apparent pKa: Table 2a, nanoparticles comprising the lipid; for Apparent pKa 95% CI: Table 2b, 95% confidence interval
CD-1 mice = test: Expression of hEPO induced by LNPs (mRNA encoding hEPO) administered to mice; assay type: in vivo; settings: Table 4a, serum, 6 h after intravenous injection; for Avg. hEPO Concentration (mIU/mL)* ± Avg. SD: ELLA Simple Plex Assay
Experimental: In some embodiments, hEPO concentrations were determined using an […] (ELLA) Simple Plex Assay (ProteinSimple) with a Human Erythroprotein cartridge. Standards for this assay are calibrated according to the 2. IRP WHO preparation. Nanoparticle compositions including mRNA are useful in the evaluation of the efficacy and usefulness of various formulations for the delivery of therapeutic and/or prophylactics. Higher levels of protein expression induced by administration of a composition including an mRNA will be indicative of higher mRNA translation and/or nanoparticle composition mRNA delivery efficiencies. As the non-RNA components are not thought to affect translational machineries themselves, a higher level of protein expression is likely indicative of a higher efficiency of delivery of the therapeutic and/or prophylactic by a given nanoparticle composition relative to other nanoparticle compositions or the absence thereof.
To assess potency of expression of lipids of the disclosure, the protein expression (hEPO) following administration of a nanoparticle comprising a lipid of the disclosure (e.g., a loaded LNP) to mice was measured.
Lipid nanoparticles (LNPs) including DSPC as a phospholipid, cholesterol as a structural lipid, PL-II (e.g., PEG-1) as a PEG lipid, a lipid according to Formula (I-1), (I), (I-A), (I-A1), (I-A2), (I-A3), or (I-A4), and an mRNA encoding hEPO were intravenously administered to CD-1 mice. The concentration of hEPO in serum was tested at 6 h after injection.

[3] = Lipid nanoparticle surface hydrophobicity by Generalized Polarization by Laurdan (N-GP); assay type: physicochemical; settings: for Lipid nanoparticle surface hydrophobicity (N-GP*): Table 2a, Laurdan, higher N-GP indicates a less polar surface; for LNP surface hydrophobicity (N-GP*): Table 2b, nanoparticles comprising the lipid
Text: Surface hydrophobicity of nanoparticles of the disclosure can be measured by Generalized Polarization by Laurdan (GPL). In this method, Laurdan, a fluorescent aminonaphthalene ketone lipid, is post-inserted into the nanoparticle surface and the fluorescence spectrum of Laurdan is collected to determine the normalized Generalized Polarization (N-GP). In some embodiments, nanoparticles formulated with lipids of the disclosure have a surface hydrophobicity expressed as N-GP of between about 0.5 and about 1.5. For example, in some embodiments, nanoparticles formulated with lipids of the disclosure have a surface hydrophobicity expressed as N-GP of about 0.5, about 0.6, about 0.7, about 0.8, about 0.9, about 1.0, about 1.1, about 1.2, about 1.3, about 1.4, or about 1.5. In some embodiments, nanoparticles formulated with lipids of the disclosure have a surface hydrophobicity expressed as N-GP of about 1.0 or about 1.1.

[4] = Encapsulation efficiency (% EE) of lipid nanoparticles; assay type: physicochemical; settings: nanoparticles comprising the lipid
Experimental: For nanoparticle compositions including an RNA, a QUANT-IT™ RIBOGREEN® RNA assay (Invitrogen Corporation Carlsbad, CA) can be used to evaluate the encapsulation of an RNA by the nanoparticle composition. The samples are diluted to a concentration of approximately 5 μg/mL in a TE buffer solution (10 mM Tris-HCl, 1 mM EDTA, pH 7.5). 50 μL of the diluted samples are transferred to a polystyrene 96 well plate and either 50 μL of TE buffer or 50 μL of a 2% Triton X-100 solution is added to the wells. The plate is incubated at a temperature of 37° C. for 15 minutes. The RIBOGREEN® reagent is diluted 1:100 in TE buffer, and 100 μL of this solution is added to each well. The fluorescence intensity can be measured using a fluorescence plate reader (Wallac Victor 1420 Multilablel Counter; Perkin Elmer, Waltham, MA) at an excitation wavelength of, for example, about 480 nm and an emission wavelength of, for example, about 520 nm. The fluorescence values of the reagent blank are subtracted from that of each of the samples and the percentage of free RNA is determined by dividing the fluorescence intensity of the intact sample (without addition of Triton X-100) by the fluorescence value of the disrupted sample (caused by the addition of Triton X-100).
The efficiency of encapsulation of a therapeutic and/or prophylactic describes the amount of therapeutic and/or prophylactic that is encapsulated or otherwise associated with a lipid nanoparticle (e.g., an empty LNP or a loaded LNP) after preparation, relative to the initial amount provided. The encapsulation efficiency is desired to be high (e.g., close to 100%). The encapsulation efficiency may be measured, for example, by comparing the amount of therapeutic and/or prophylactic in a solution containing a loaded LNP before and after breaking up the loaded LNP with one or more organic solvents or detergents. Fluorescence may be used to measure the amount of free therapeutic and/or prophylactic (e.g., RNA) in a solution. For the loaded LNPs formulated with lipids of the disclosure, the encapsulation efficiency of a therapeutic and/or prophylactic is at least 50%, for example 50%, 55%, 60%, 65%, 70%, 75%, 80%, 85%, 90%, 91%, 92%, 93%, 94%, 95%, 96%, 97%, 98%, 99%, or 100%. In some embodiments, the encapsulation efficiency is at least 80%. In some embodiments, the encapsulation efficiency is at least 90%. In some embodiments, the encapsulation efficiency of the therapeutic and/or prophylactic agent is between 80% and 100%.
as §1

[5] = Table 2a, DSPC, cholesterol, PEG lipid

SMILES | PDI ([1]; Table 2a) | Diameter (nm) [1, 5] | Diameter (nm) ([1]; Table 3) | PDI ([1]; Table 3) | Apparent pKa [2] | Lipid nanoparticle surface hydrophobicity (N-GP*) [3] | % EE ([4]; Table 2a) | % EE ([4]; Table 3) | Diameter (nm) ([1]; Table 2b) | PDI ([1]; Table 2b) | Apparent pKa 95% CI [2] | LNP surface hydrophobicity (N-GP*) [3] | % EE ([4]; Table 2b) | Avg. hEPO Concentration (mIU/mL) ± Avg. SD (CD-1 mice) | Avg. hEPO Concentration (mIU/mL)* ± Avg. SD (CD-1 mice)
CCCCCCCCC(CCCCCCCC)OC(=O)CCCCCCCN(CCCCCCCC(=O)OCCC(CCCC)CCCC)CCCNS(=O)(=O)CCOC [Compound 3] | 0.099 | 72.1 nm | 80.9 nm | 0.139 | 6.549 | 1.00 | 89.4% | 95.6% | – | – | – | – | – | 7.11E+06 ± 1.75E+05 mIU/mL | –
CCCCCCCCC(CCCCCCCC)OC(=O)CCCCCCCN(CCCCCCCC(=O)OCCC(CCCC)CCCC)CCCNC(=O)C1(C)CC1 [Compound 4] | – | – | 84.6 nm | 0.194 | – | – | – | 54.1% | 94.5 nm | 0.198 | 6.676 to 6.749 | 1.05 | 45.9% | – | 1.04E+07 ± 2.85E+05 mIU/mL
CCCCCCCCC(CCCCCCCC)OC(=O)CCCCCCCN(CCCCCCCC(=O)OCCC(CCCC)CCCC)CCCNS(=O)(=O)CC [Compound 5] | 0.073 | 67.2 nm | 83.1 nm | 0.166 | 6.536 | 1.02 | 93.4% | 96.0% | – | – | – | – | – | 1.04E+07 ± 2.49E+05 mIU/mL | –
CCCCCCCCC(CCCCCCCC)OC(=O)CCCCCCCN(CCCCCCCC(=O)OCCC(CCCC)CCCC)CCCNc1ncccc1N [Compound 7] | – | – | 72.6 nm | 0.133 | – | – | – | 99.0% | 76.9 nm | 0.129 | 6.654 to 6.751 | 1.17 | 98.0% | – | 1.04E+06 ± 2.04E+04 mIU/mL
CCCCCC(CCCCC)CCOC(=O)CCCCCCCN(CCCCCCCC(=O)OCCC(CCCC)CCCC)CCCNc1n[s+]([O-])nc1NC (stereo not shown) [Compound 8] | 0.144 | 86.9 nm | 90.9 nm | 0.217 | 6.934 | 0.99 | 89.6% | 97.1% | – | – | – | – | – | 4.95E+06 ± 1.24E+05 mIU/mL | –
CCCCCC(CCCCC)CCOC(=O)CCCCCCCN(CCCCCCCC(=O)OCCC(CCCC)CCCC)CCCNc1noc(N)n1 [Compound 9] | – | – | 69.7 nm | 0.165 | – | – | – | 91.2% | 96.9 nm | 0.103 | 6.583 to 6.671 | 0.98 | 91.9% | – | 1.84E+06 ± 2.44E+04 mIU/mL
CCCCCC(CCCCC)CCOC(=O)CCCCCCCN(CCCCCCCC(=O)OCCC(CCCC)CCCC)CCCNC(=O)C1(C)CC1 [Compound 11] | – | – | 117 nm | 0.262 | – | – | – | 34.3% | 200.1 nm | 0.199 | 6.906 to 6.961 | 1.01 | 18.2% | – | 4.15E+06 ± 8.08E+04 mIU/mL

Second part, led by results:

PDI ([1]; Table 2a) | Diameter (nm) [1, 5] | Diameter (nm) ([1]; Table 3) | PDI ([1]; Table 3) | Apparent pKa [2] | Lipid nanoparticle surface hydrophobicity (N-GP*) [3] | % EE ([4]; Table 2a) | % EE ([4]; Table 3) | Diameter (nm) ([1]; Table 2b) | PDI ([1]; Table 2b) | Apparent pKa 95% CI [2] | LNP surface hydrophobicity (N-GP*) [3] | % EE ([4]; Table 2b) | SMILES | Avg. hEPO Concentration (mIU/mL) ± Avg. SD (CD-1 mice) | Avg. hEPO Concentration (mIU/mL)* ± Avg. SD (CD-1 mice)
0.042 | 60.2 nm | 65.9 nm | 0.163 | 6.323 | 0.99 | 93.2% | 96.7% | – | – | – | – | – | CCCCCCCCC(CCCCCCCC)OC(=O)CCCCCCCN(CCCCCCCC(=O)OCCC(CCCC)CCCC)CCCNS(=O)(=O)Cc1ccon1 [Compound 6] | 5.41E+06 ± 6.06E+04 mIU/mL | –
0.208 | 133.3 nm | 96.7 nm | 0.154 | 6.738 | 1.03 | 55.1% | 91.7% | 122.3 nm | 0.181 | 6.644 to 6.741 | 0.89 | 65.0% | CCCCCC(CCCCC)CCOC(=O)CCCCCCCN(CCCCCCCC(=O)OCCC(CCCC)CCCC)CCCNS(=O)(=O)CCOC [Compound 10] | 6.15E+06 ± 1.35E+05 mIU/mL | –
0.248 | 120.2 nm | 109.2 nm | 0.155 | 6.669 | 1.04 | 80.9% | 94.1% | – | – | – | – | – | CCCCCC(CCCCC)CCOC(=O)CCCCCCCN(CCCCCCCC(=O)OCCC(CCCC)CCCC)CCCNS(=O)(=O)CC [Compound 12] | 5.83E+06 ± 1.13E+05 mIU/mL | –
0.205 | 109.5 nm | 76.1 nm | 0.118 | 6.688 | 1.08 | 61.0% | 96.1% | 98.5 nm | 0.164 | 6.641 to 6.731 | 1.09 | 73.4% | CCCCCC(CCCCC)CCOC(=O)CCCCCCCN(CCCCCCCC(=O)OCCC(CCCC)CCCC)CCCNS(=O)(=O)Cc1ccon1 [Compound 13] | 1.41E+07 ± 2.72E+05 mIU/mL | –
